pIC50: −log10 of the molar value.
Experiments:
PC3 cells = experiment: NAMPT Cell Proliferation Assay; format: cell-based; conditions: Homo sapiens, PC-3, 120 h, 5 days incubation, cell viability by Cell Titer Glo
Summary of the method: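 IC50 values derive from sigmoidal dose-response fits of percent inhibition of PC3 viability, measured by luminescence after 5 days of compound treatment. Cells (500/well, RPMI containing 10% heat-inactivated FBS) are allowed to attach overnight, and compounds are tested at 10-fold dilutions between 10 μM and 1×10^−5 μM.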

[1] = target: NAMPT (human, recombinant, C-terminally His-tagged) (Homo sapiens, UniProt P43490); experiment: Time-Resolved Fluorescence Resonance Energy Transfer (TR-FRET) Binding Assay of NAMPT; conditions: without substrates; 6.8 nM NAMPT, 200 nM probe, 3 hours equilibration
NAMPT (human, recombinant, C-terminally His-tagged), sequence (P43490 whole entry): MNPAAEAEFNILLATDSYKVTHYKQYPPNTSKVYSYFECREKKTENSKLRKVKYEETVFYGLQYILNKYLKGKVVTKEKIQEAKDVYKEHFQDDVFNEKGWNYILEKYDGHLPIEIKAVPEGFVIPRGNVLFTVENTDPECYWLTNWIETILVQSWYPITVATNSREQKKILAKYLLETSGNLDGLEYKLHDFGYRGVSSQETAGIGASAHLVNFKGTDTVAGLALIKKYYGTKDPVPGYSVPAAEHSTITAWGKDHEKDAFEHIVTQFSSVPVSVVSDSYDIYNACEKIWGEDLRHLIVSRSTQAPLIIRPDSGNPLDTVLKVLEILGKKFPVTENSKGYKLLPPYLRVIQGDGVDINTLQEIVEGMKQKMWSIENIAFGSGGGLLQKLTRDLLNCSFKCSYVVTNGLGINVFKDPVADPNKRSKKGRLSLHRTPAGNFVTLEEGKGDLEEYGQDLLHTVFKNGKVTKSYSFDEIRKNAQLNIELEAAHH
Summary of the method: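 Compounds, diluted in half-log steps, are mixed with enzyme (6.8 nM), fluorescent probe (200 nM) and Tb-anti-His antibody (1 nM) in pH 7.5 HEPES buffer containing 10 mM MgCl2 and 1 mM DTT. Plates equilibrate 3 h at room temperature; normalized FRET ratios are fitted by four-parameter logistic regression for IC50.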

NAMPT = NAMPT (Homo sapiens, UniProt P43490); experiment: TR-FRET Binding Assay of NAMPT with PRPP; conditions: with 200 μM PRPP and 2.5 mM ATP; 2 nM NAMPT, 2 nM probe, 16 hours equilibration
NAMPT, sequence (P43490 whole entry): as above
Summary of the method: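 Compounds were mixed with 2 nM His-tagged NAMPT, 2 nM probe, 1 nM terbium anti-His antibody, 200 μM PRPP and 2.5 mM ATP in assay buffer with 2% DMSO, then left 16 hours to permit possible enzymatic processing of compounds before time-resolved FRET was measured.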

| SMILES | pIC50 (PC3 cells) | pIC50 [1] | pIC50 (NAMPT) |
| --- | --- | --- | --- |
| O=C(NCc1ccc2nccn2c1)c1ccc(-c2cnn(CC3CCCCO3)c2)s1 (stereo not drawn) [Example 186, N-(imidazo[1,2-a]pyridin-6-ylmethyl)-5-[1-(tetrahydro-2H-pyran-2-ylmethyl)-1H-pyrazol-4-yl]thiophene-2-carboxamide] | 8.63 | 7.18 | 9.46 |
| O=C(NCc1ccn2ccnc2c1)c1ccc(C2CCN(C(=O)CC3CCCCC3)C2)cc1 (stereo not drawn) [Example 607, 4-[1-(cyclohexylacetyl)pyrrolidin-3-yl]-N-(imidazo[1,2-a]pyridin-7-ylmethyl)benzamide] | 7.13 | 6.32 | 9.10 |
| O=C(NCc1ccn2ccnc2c1)Nc1ccc(C2CCN(C(=O)CCC(F)(F)F)CC2)cc1 [Example 714, 1-(imidazo[1,2-a]pyridin-7-ylmethyl)-3-{4-[1-(4,4,4-trifluorobutanoyl)piperidin-4-yl]phenyl}urea] | 7.76 | 6.77 | 9.00 |
| O=C(Nc1ccc(C(=O)Nc2ccccc2)cc1)Nc1ccc2nccn2c1 [Example 19, 4-[(imidazo[1,2-a]pyridin-6-ylcarbamoyl)amino]-N-phenylbenzamide] | 5.18 | 5.57 | 9.04 |
| O=C(NCc1ccn2ccnc2c1)c1ccc(-c2ccc(N3CCOCC3)nc2)s1 [Example 464, N-(imidazo[1,2-a]pyridin-7-ylmethyl)-5-[6-(morpholin-4-yl)pyridin-3-yl]thiophene-2-carboxamide] | 8.17 | 7.20 | 9.77 |
| CC(C)C(=O)N1CC(Oc2ccc(NC(=O)NCc3ccn4ccnc4c3)cc2)C1 [Example 425, 1-(imidazo[1,2-a]pyridin-7-ylmethyl)-3-(4-{[1-(2-methylpropanoyl)azetidin-3-yl]oxy}phenyl)urea] | 7.16 | 6.82 | 9.64 |
| O=C(NCc1ccn2ccnc2c1)Nc1ccc(C2CCN(C(=O)CN3CCOCC3)CC2)cc1 [Example 224, 1-(imidazo[1,2-a]pyridin-7-ylmethyl)-3-{4-[1-(morpholin-4-ylacetyl)piperidin-4-yl]phenyl}urea] | 7.64 | 6.63 | 9.26 |
| O=C(CC1CCCC1)Nc1ccc(C(=O)NCc2cn3ccnc3cn2)cc1 [Example 679, 4-[(cyclopentylacetyl)amino]-N-(imidazo[1,2-a]pyrazin-6-ylmethyl)benzamide] | 7.96 | 7.64 | 8.76 |
| CC(C)OCC(=O)N1CCC(Oc2ccc(C(=O)NCc3ccn4ccnc4c3)cc2)CC1 [Example 416, N-(imidazo[1,2-a]pyridin-7-ylmethyl)-4-({1-[(propan-2-yloxy)acetyl]piperidin-4-yl}oxy)benzamide] | 6.18 | 5.60 | 9.50 |
| CC1(C(=O)N2CCC(c3ccc(C(=O)NCc4cn5ccnc5cn4)cc3)CC2)CC1 [Example 814, N-(imidazo[1,2-a]pyrazin-6-ylmethyl)-4-{1-[(1-methylcyclopropyl)carbonyl]piperidin-4-yl}benzamide] | 8.35 | 7.16 | 8.79 |
| O=C(NCc1ccc2nccn2c1)c1ccc(C2=CCN(C(=O)C3CCOCC3)CC2)cc1 [Example 101, N-(imidazo[1,2-a]pyridin-6-ylmethyl)-4-[1-(tetrahydro-2H-pyran-4-ylcarbonyl)-1,2,3,6-tetrahydropyridin-4-yl]benzamide] | 8.61 | 6.48 | 8.76 |
| CC1(C(=O)N2CCC(c3ccc(C(=O)NCc4ccn5ccnc5c4)cc3)CC2)CC1 [Example 538, N-(imidazo[1,2-a]pyridin-7-ylmethyl)-4-{1-[(1-methylcyclopropyl)carbonyl]piperidin-4-yl}benzamide] | 8.48 | 6.56 | 9.29 |
| O=C(NCc1ccn2ccnc2c1)c1ccc(OC2CN(C(=O)c3ccccc3)C2)cc1 [Example 561, 4-[(1-benzoylazetidin-3-yl)oxy]-N-(imidazo[1,2-a]pyridin-7-ylmethyl)benzamide] | 6.62 | 6.06 | 9.47 |
| COCCNC(=O)N(CC1CCOC1)c1ncc(C(=O)NCc2ccc3nccn3c2)s1 (stereo not drawn) [Example 141, N-(imidazo[1,2-a]pyridin-6-ylmethyl)-2-{[(2-methoxyethyl)carbamoyl](tetrahydrofuran-3-ylmethyl)amino}-1,3-thiazole-5-carboxamide] | 7.11 | 5.68 | 9.12 |
| CC(=O)N1CC=C(c2ccc(C(=O)NCc3ccn4ccnc4c3)s2)CC1 [Example 241, 5-(1-acetyl-1,2,3,6-tetrahydropyridin-4-yl)-N-(imidazo[1,2-a]pyridin-7-ylmethyl)thiophene-2-carboxamide] | 8.07 | 7.17 | 9.77 |
| CC(C)C(=O)N1CCC(c2ccc(NC(=O)Nc3ccc4nccn4c3)cc2)CC1 [Example 106, 1-imidazo[1,2-a]pyridin-6-yl-3-{4-[1-(2-methylpropanoyl)piperidin-4-yl]phenyl}urea] | 7.10 | 6.61 | 9.70 |
| O=C(NCc1ccn2ccnc2c1)c1ccc(C2CCN(C(=O)c3cccc(Cl)c3)C2)s1 (stereo not drawn) [Example 779, 5-[1-(3-chlorobenzoyl)pyrrolidin-3-yl]-N-(imidazo[1,2-a]pyridin-7-ylmethyl)thiophene-2-carboxamide] | 9.30 | 7.85 | 9.22 |
| CC(C)C(C)C(=O)N1CCC(c2ccc(C(=O)NCc3ccn4ccnc4c3)s2)C1 (stereo not drawn) [Example 800, 5-[1-(2,3-dimethylbutanoyl)pyrrolidin-3-yl]-N-(imidazo[1,2-a]pyridin-7-ylmethyl)thiophene-2-carboxamide] | 8.21 | 7.09 | 9.03 |
| O=C(NCc1ccn2ccnc2c1)c1ccc(C2CCN(C(=O)c3cncs3)C2)cc1 (stereo not drawn) [Example 586, N-(imidazo[1,2-a]pyridin-7-ylmethyl)-4-[1-(1,3-thiazol-5-ylcarbonyl)pyrrolidin-3-yl]benzamide] | 6.52 | 6.07 | 8.96 |
| CC(C)(O)Cn1cc(-c2ccc(C(=O)NCc3ccc4nccn4c3)s2)cn1 [Example 176, 5-[1-(2-hydroxy-2-methylpropyl)-1H-pyrazol-4-yl]-N-(imidazo[1,2-a]pyridin-6-ylmethyl)thiophene-2-carboxamide] | 8.74 | 7.22 | 9.38 |
| O=C(NCc1ccn2ccnc2c1)c1ccc(-c2cnn(CC3(F)CCOCC3)c2)s1 [Example 698, 5-{1-[(4-fluorotetrahydro-2H-pyran-4-yl)methyl]-1H-pyrazol-4-yl}-N-(imidazo[1,2-a]pyridin-7-ylmethyl)thiophene-2-carboxamide] | 9.17 | 7.44 | 9.20 |
| O=C(NCc1ccn2ccnc2c1)c1ccc(C2CCN(C(=O)c3cccnc3)CC2)cc1 [Example 537, N-(imidazo[1,2-a]pyridin-7-ylmethyl)-4-[1-(pyridin-3-ylcarbonyl)piperidin-4-yl]benzamide] | 7.37 | 6.34 | 9.64 |
| O=C(NCc1ccn2ccnc2c1)c1ccc(C2CN(C(=O)c3ccccn3)C2)cc1 [Example 661, N-(imidazo[1,2-a]pyridin-7-ylmethyl)-4-[1-(pyridin-2-ylcarbonyl)azetidin-3-yl]benzamide] | 7.17 | 6.34 | 9.19 |
| O=C(NCc1ccn2ccnc2c1)c1ccc(C2CN(C(=O)c3ccccc3F)C2)cc1 [Example 638, 4-[1-(2-fluorobenzoyl)azetidin-3-yl]-N-(imidazo[1,2-a]pyridin-7-ylmethyl)benzamide] | 8.58 | 7.78 | 9.26 |
| CC1(Cn2cc(-c3ccc(C(=O)NCc4ccc5ncnn5c4)s3)cn2)CCOCC1 [Example 622, 5-{1-[(4-methyltetrahydro-2H-pyran-4-yl)methyl]-1H-pyrazol-4-yl}-N-([1,2,4]triazolo[1,5-a]pyridin-6-ylmethyl)thiophene-2-carboxamide] | 8.15 | 7.53 | 8.63 |
| CC(C)C(=O)N1CCC(c2ccc(C(=O)NCc3ccn4ccnc4c3)cc2)C1 (stereo not drawn) [Example 367, N-(imidazo[1,2-a]pyridin-7-ylmethyl)-4-[1-(2-methylpropanoyl)pyrrolidin-3-yl]benzamide] | 6.22 | 6.19 | 9.74 |
| COCCC(=O)N(Cc1ccc(C#N)cc1)c1ncc(C(=O)Nc2ccc3nccn3c2)s1 [Example 54, 2-[(4-cyanobenzyl)(3-methoxypropanoyl)amino]-N-(imidazo[1,2-a]pyridin-6-yl)-1,3-thiazole-5-carboxamide] | 6.52 | 6.44 | 8.59 |
| O=C(NCc1ccn2ccnc2c1)c1ccc(C2CCN(C(=O)c3ccccn3)C2)s1 (stereo not drawn) [Example 774, N-(imidazo[1,2-a]pyridin-7-ylmethyl)-5-[1-(pyridin-2-ylcarbonyl)pyrrolidin-3-yl]thiophene-2-carboxamide] | 8.15 | 6.99 | 9.34 |

— patent publication US9187472B2 (AbbVie Inc., priority 2012, dated 2015)
